# Experimental data taken from patent publication US9557338B2 (SIGNAL PHARMACEUTICALS, LLC, priority 2012, dated 2017).
# Where two headings read alike, the source gives them in different places.
# How the values were obtained:
# Type in all cases: cell-based
# [1] = test system: Akt(T308); experiment: Inhibition of Akt(T308) phosphorylation in cell lines; conditions: read-out: p-Akt(T308)
# [2] = test system: HT-29; experiment: Growth inhibition (cell proliferation assay), HT-29; conditions: read-out: Compound 1 Growth Inhibition IC50
# [3] = test system: PC3; experiment: Growth inhibition (cell proliferation assay), PC3; conditions: read-out: Compound 1 Growth Inhibition IC50
# [4] = test system: p70S6K; experiment: Luminex multiplex assay, p70S6K phosphorylation in cell lysates
# [5] = test system: Akt(S473); experiment: Inhibition of Akt(S473) phosphorylation in cell lines; conditions: read-out: p-Akt (S473)
compound,measurement,setting,value
"CO[C@H]1CC[C@H](N2C(=O)CNc3ncc(-c4ccc(C(C)(C)O)nc4)nc32)CC1 [Compound 1, 7-(6-(2-hydroxypropan-2-yl)pyridin-3-yl)-1-((1r,4r)-4-methoxycyclohexyl)-3,4-dihydropyrazino-[2,3-b]pyrazin-2(1H)-one]",IC50,[1]; A549,640 nM
same,IC50,[1]; HCT116,1950 nM
same,IC50,[1]; HT-29,240 nM
same,IC50,[1]; PC3,130 nM
same,IC50,[1]; U-87 MG,260 nM
same,IC50,[2],> 20000 nM
same,IC50,[3],110 nM
same,IC50,"[4]; HCT116 cell line, IGF, read-out: Luminex p70S6K (IGF)",191 nM
same,IC50,"[4]; U87MG cell line, read-out: Luminex p70S6K",103 nM
same,IC50,[5]; A549,120 nM
same,IC50,[5]; HCT116,100 nM
same,IC50,[5]; HT-29,250 nM
same,IC50,[5]; MDA-MB-231,40 nM
same,IC50,[5]; NCI-H23,100 nM
same,IC50,[5]; PC3,10 nM
same,IC50,[5]; U-87 MG,150 nM
